This is an account of results in ChEMBL document CHEMBL1821662 (Bioorg Med Chem Lett, 2011).

In one data set the target is T1, Aurora kinase A (Homo sapiens, UniProt O14965).
T1 sequence (O14965 whole entry): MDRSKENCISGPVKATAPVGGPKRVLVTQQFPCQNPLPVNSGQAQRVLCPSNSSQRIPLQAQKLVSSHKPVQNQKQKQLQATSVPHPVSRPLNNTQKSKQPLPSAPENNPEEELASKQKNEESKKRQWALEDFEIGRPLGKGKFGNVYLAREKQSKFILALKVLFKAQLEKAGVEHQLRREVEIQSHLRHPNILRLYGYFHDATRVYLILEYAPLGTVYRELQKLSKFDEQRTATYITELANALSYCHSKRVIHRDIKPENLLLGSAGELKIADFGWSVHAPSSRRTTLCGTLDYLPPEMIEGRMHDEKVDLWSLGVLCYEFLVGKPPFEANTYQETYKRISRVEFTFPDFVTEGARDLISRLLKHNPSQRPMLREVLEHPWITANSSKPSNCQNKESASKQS
Put plainly: Binding affinity to Aurora A kinase catalytic domain by competitive binding assay.

The next data set has as its target T2, Aurora kinase C (Homo sapiens, UniProt Q9UQB9).
T2 sequence (Q9UQB9 whole entry): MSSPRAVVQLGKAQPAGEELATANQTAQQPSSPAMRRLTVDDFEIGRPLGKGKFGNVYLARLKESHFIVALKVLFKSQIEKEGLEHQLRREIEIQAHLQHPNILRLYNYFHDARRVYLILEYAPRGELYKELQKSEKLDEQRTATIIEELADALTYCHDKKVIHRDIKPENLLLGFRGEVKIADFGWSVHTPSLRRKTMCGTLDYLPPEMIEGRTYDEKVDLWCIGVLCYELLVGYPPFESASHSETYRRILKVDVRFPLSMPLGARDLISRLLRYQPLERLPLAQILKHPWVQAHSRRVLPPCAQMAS
Put plainly: Binding affinity to Aurora C kinase catalytic domain by competitive binding assay.

A short description of data set [1]: Half life in Sprague-Dawley rat at 1 mg/kg, iv. It counts as ADME, organism-based. Further details: dose 1 mg/kg, route intravenous. Conditions: in vivo.
Data set [2] in a line: Clearance in Sprague-Dawley rat at 1 mg/kg, iv. In kind it is ADME, organism-based. Further details: dose 1 mg/kg, route intravenous. Conditions: in vivo.
For data set [3], the system named is HCT-116. Description: Antiproliferative activity against human HCT116 cells. In kind it is functional, cell-based.
Data set [4] in a line: Volume of distribution in Sprague-Dawley rat at 1 mg/kg, iv. It counts as ADME, organism-based. Further details: dose 1 mg/kg, route intravenous. Particulars: in vivo.
The target of data set [5] is T3, Aurora kinase B (Homo sapiens, UniProt Q96GD4). Put plainly: Inhibition of Aurora B kinase assessed as reduction in histone H3 phosphorylation in human HCT116 cells. In kind it is cell-based, HCT-116.
Data set [6] addresses T3, Aurora kinase B. Description: Binding affinity to Aurora B kinase catalytic domain by competitive binding assay.
A short description of data set [7]: AUC in Sprague-Dawley rat at 1 mg/kg, iv. Further details: dose 1 mg/kg, route intravenous. Conditions: plasma. In kind it is ADME, organism-based.
For data set [8], the system named is HCT-116. Description: Antitumor activity against human HCT116 cells xenografted in nude mouse assessed as tumor suppression dose administered intraperitoneally twice daily. In kind it is functional, cell-based.
Data set [9] is described as follows: AUC in SCID mouse at 60 mg/kg, ip. Further details: dose 60 mg/kg, route intraperitoneal. It counts as ADME, organism-based. Conditions: plasma.
The subject of the next data set is Mus musculus. Put plainly: Toxicity in nude mouse xenografted with human HCT116 cells assessed as body weight loss at 37.5 mg/kg, ip BID for 8 days. It counts as organism-based, HCT-116. Further details: dose 37.5 mg/kg, route intraperitoneal. Particulars: in vivo, 192 h.

The structures appear in SMILES notation. Bounds are passed on as bounds.

T3 sequence (Q96GD4 whole entry, the tested form may be a part): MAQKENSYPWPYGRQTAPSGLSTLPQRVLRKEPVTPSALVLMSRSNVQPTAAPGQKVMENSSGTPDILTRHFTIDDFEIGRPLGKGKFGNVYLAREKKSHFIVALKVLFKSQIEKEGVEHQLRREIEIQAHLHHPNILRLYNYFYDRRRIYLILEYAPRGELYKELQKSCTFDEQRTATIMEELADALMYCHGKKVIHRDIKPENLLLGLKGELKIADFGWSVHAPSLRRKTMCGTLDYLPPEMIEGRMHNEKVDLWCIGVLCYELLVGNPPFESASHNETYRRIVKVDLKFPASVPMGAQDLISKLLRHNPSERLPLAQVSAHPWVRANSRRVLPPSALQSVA

`Cc1cc(Nc2nc(Sc3ccc(NC(=O)CN4C[C@H](OC(C)(C)C)C[C@H]4CO)cc3)nn3cccc23)n[nH]1`: the equilibrium dissociation constant (Kd) on Aurora kinase A turned out to be 9 nM; on Aurora kinase C it was 2 nM; on Aurora kinase B [6] it was 8 nM. Besides, the half-life in data set [1] was 15.4 h. The clearance in [2] is 52.2 mL/min/kg. Also, the half-maximal inhibitory concentration (IC50) in the data set with HCT-116 [3] came to 8 nM; at Aurora kinase B [5], 15 nM. The same compound came in with a volume of distribution (Vd) in data set [4] of 9.77 L/kg. The same compound yielded an AUC in data set [7] of 0.581 µM·h.
`Cc1cc(Nc2nc(Sc3ccc(NC(=O)C4CC4)cc3)nn3cccc23)n[nH]1`: the Kd turned out to be 12 nM at Aurora kinase A, 4 nM at Aurora kinase C and 20 nM on Aurora kinase B [6]. The half-life in data set [1] is 10.8 h. Besides, the clearance in data set [2] amounted to 28.5 mL/min/kg. Further, the half-maximal inhibitory concentration (IC50) with HCT-116 [3] came out at 345 nM; on Aurora kinase B [5], 431 nM. Besides, in [4], the Vd amounted to 2.15 L/kg. Moreover, the AUC in data set [7] amounted to 2.34 µM·h.
Consider `Cc1cc(Nc2nc(Sc3ccc(NC(=O)CN4C[C@H](Oc5ccc(F)cc5)[C@@H](O)C4)cc3)nn3cccc23)n[nH]1`, for which the Kd stood at 15 nM at Aurora kinase A and 8 nM on Aurora kinase B [6]. The same compound had a half-life in data set [1] of 3.36 h. The compound further gave a clearance in data set [2] of 25.2 mL/min/kg. The half-inhibitory concentration (IC50) is 5 nM with HCT-116 [3] and 44 nM on Aurora kinase B [5]. Further, the Activity result was “Dose-dependent effect” with HCT-116 [8] and over 20% in the data set on Mus musculus. Moreover, the AUC amounted to 47.5 µM·h in data set [9] and 1.17 µM·h in data set [7]. The compound also returned a distribution volume (Vd) in [4] of 2.93 L/kg.
In the case of `Cc1cc(Nc2nc(Sc3ccc(NC(=O)C4CC4)cc3)nn3cc(NC(=O)N4CCN(C)CC4)cc23)n[nH]1`, the Kd on Aurora kinase A stood at 7 nM; at Aurora kinase C, 5 nM; on Aurora kinase B [6], 4 nM. In data set [1], this compound showed a half-life of 8.66 h. The same compound yielded a clearance in [2] of 53.3 mL/min/kg. For the same compound, the half-maximal inhibitory concentration (IC50) in the data set with HCT-116 [3] was 75 nM; at Aurora kinase B [5] it was 190 nM. For the same compound, in data set [4], the Vd was found to be 5.86 L/kg. Besides, the area under the curve (AUC) in data set [7] is 0.757 µM·h.
For the compound `Cc1cc(Nc2nc(Sc3ccc(NC(=O)CN4C[C@H](OC(C)(C)C)[C@@H](O)C4)cc3)nn3cccc23)n[nH]1`, the dissociation constant (Kd) stood at 12 nM on Aurora kinase A and 5 nM on Aurora kinase B [6]. Besides, the half-life in data set [1] is 11.2 h. This compound also displayed a clearance in data set [2] of 45 mL/min/kg. Further, the values for the IC50 in the data set with HCT-116 [3] and at Aurora kinase B [5] were 4 nM and 16 nM, respectively. The same compound yielded a distribution volume (Vd) in data set [4] of 18.3 L/kg. In data set [7], the AUC was determined as 0.644 µM·h.

Broadly, the Kd is the concentration at which binding is half-saturated. Lower therefore signals a tighter complex. As usually defined, the half-life is the time in which the quantity being followed falls by half. A lower half-life goes with rapid decline. For orientation: clearance means the volume of plasma or blood freed of the substance per unit of time. By IC50 is commonly meant the midpoint of a concentration-inhibition curve. By Vd is commonly meant a proportionality between amount in the body and measured concentration, not a real space. A low value points to confinement near the circulation. A word on the AUC: it is the area under the concentration-time curve, a measure of exposure. Lower therefore signals low exposure.
